Holding throughout (assay type): biochemical
What all share (settings): 1 mM reagent

The subject of test [1] is Streptomyces sp. TUB B-12-2 endoxylanase xyl 1a. The method, then:
(§1) Xylanase activity was routinely determined by measuring the release of reducing sugars from either 1% (w/v) alkali-soluble or water soluble oat-spelt xylan, using the Somogyi's modification Nelson method (NS) as previously described. Crude or purified enzyme preparations were diluted appropriately to obtain maximal activity consistent with a linear response. For comparative purposes, xylanase activities were measured against 1% (w/v) water soluble and water insoluble xylan from either oat-spelts or birch (Sigma). The dinitrosalicylic acid (DNS) method of Miller, Anal. Chem., 31:426-429 (1959) was used to assay xylanase activity during initial screening. Carboxymethylcellulase activity (CMCase) was assayed by replacing 1% xylan with 1% of low viscosity carboxymethyl cellulose (Sigma). Acetylated glucuronoxylan was recovered from birch wood flakes by hot water extraction. β-Xylosidase was assayed as described by Bachmann and McCarthy, J. Gen. Microbiol., 135:293-299 (1989) using 5 mM p-nitrophenyl-β-D-xylopyranoside in 50 mM potassium phosphate buffer at pH 7.0. The values of the Michaelis constant (Km) and the maximum velocity (Vmax) were determined from a Lineweaver-Burke plot of assayed activities over a range of substrate concentrations. Suitably diluted xylanases were incubated with alkali-soluble birch wood or oat spelt xylan at concentrations ranging from 0.5 to 10 mg/ml under the assay conditions given.
(§2) f. Effectors. We investigated the effects of 1 mM metal ions and other agents on the activities of purified endoxylanases (Table 14).

The test system of test [2] is Streptomyces sp. TUB B-12-2 endoxylanase xyl 2. The method, then:
as §1, §2

For test [3], the system named is Streptomyces sp. TUB B-12-2 endoxylanase xyl 1b. The method, then: as §1, §2
The subject of test [4] is Streptomyces sp. TUB B-12-2 endoxylanase xyl 3. The method, then: as §1, §2
The subject of test [5] is Streptomyces sp. TUB B-12-2 endoxylanase xyl 4. The method, then: as §1, §2

Data on three compounds can be found in US5834301A, “Method of removing color from kraft wood pulps” (priority 1995, dated 1998).

As to `O=C(O)c1cc[c]([Hg][OH])cc1` [PHMB, p-Hydroxymercury-benzoate], the “Relative activity (%) xyl 1a” value in test [1] is reported as 100%. Further, the “Relative activity (%) xyl 2” value in test [2] was found to be 90%. Further, in test [3], the “Effect on activity of xyl 1b (in words)” value is “completely inactivated” and the “Relative activity (%) xyl 1b” value is on record as 0%. For the same compound, the “Relative activity (%) xyl 3” value in test [4] was found to be 96%. In addition, in test [5], the “Relative activity (%) xyl 4” value is listed as 95%.

In the case of `O=S(=O)(F)Cc1ccccc1` [PMSF, Phenylmethylsulfonylfluoride], in test [1], the “Effect on activity of xyl 1a (in words)” value is “did not influence the activity” and the “Relative activity (%) xyl 1a” value worked out at 95%. In addition, in test [2], the “Effect on activity of xyl 2 (in words)” value is “did not influence the activity” and the “Relative activity (%) xyl 2” value was found to be 100%. Besides, in test [3], the “Effect on activity of xyl 1b (in words)” value was “did not influence the activity” and the “Relative activity (%) xyl 1b” value came to 87%. Moreover, in test [4], the “Effect on activity of xyl 3 (in words)” value is “did not influence the activity” and the “Relative activity (%) xyl 3” value turned out to be 100%. Moreover, in test [5], the “Effect on activity of xyl 4 (in words)” value is “did not influence the activity” and the “Relative activity (%) xyl 4” value came out at 100%.

Regarding N-Bromosuccinamide, in test [1], the “Effect on activity of xyl 1a (in words)” value is “totally inactivated” and the “Relative activity (%) xyl 1a” value was 0%. Moreover, in test [2], the “Effect on activity of xyl 2 (in words)” value is “totally inactivated” and the “Relative activity (%) xyl 2” value is recorded as 0%. Besides, in test [3], the “Effect on activity of xyl 1b (in words)” value is “totally inactivated” and the “Relative activity (%) xyl 1b” value stood at 0%. Moreover, in test [4], the “Effect on activity of xyl 3 (in words)” value is reported as “totally inactivated” and the “Relative activity (%) xyl 3” value is 0%. Besides, in test [5], the “Effect on activity of xyl 4 (in words)” value is listed as “totally inactivated” and the “Relative activity (%) xyl 4” value is reported as 0%.
